Converted amounts (≈) assume the structure as drawn. Read-outs that look alike come from different tables or passages of the source.
Experiments:
A2780cis cells = test: MTT assay, cytotoxicity against A2780cis; assay type: cell-based, human
Method: (§1) HeLa, Saos-2, HS-5, HepG2, T98G, and A2780 cells were purchased from American-type Culture Collection (ATCC, USA). A2780cis cell was purchased from Sigma. HeLa cells, HepG-2 cells, and T98G cells were cultured in MEM Medium supplemented with 10% v/v fetal bovine serum, 100 U/mL penicillin, and 100 μg/mL streptomycin. Saos-2 cells were cultured in McCoy's 5a Medium (for Saos-2) supplemented with 15% v/v fetal bovine serum, 100 U/mL penicillin, and 100 μg/mL streptomycin. HS-5 cells were cultured in Dulbecco's Modified Eagle's medium (DMEM) supplemented with 10% v fetal bovine serum (FBS), 100 U/mL penicillin, and 100 μg/mL streptomycin. A2780cis cells were cultured in RPMI 1640 Medium supplemented with 10% v/v fetal bovine serum, 100 U/mL penicillin, and 100 μg/mL streptomycin (cisplatin only necessary every 2-3 passages). All cells were maintained at 37° C. in a humidified atmosphere of 5% CO2.
(§2) An MTT assay was used to test the cytotoxicity. All different cell lines were seeded in 96-well plates at 1×10^5 cells/well for 24 hours followed by removal of the culture medium and subsequent addition of culture medium containing different concentrations of the precursors. At designated time (24/48/72 hours), 10 μL MTT solution (5 mg/mL) was added to each well and incubated at 37° C. for another 4 hours, and then 100 μL of SDS-HCl solution was added to stop the reduction reaction and dissolve the purple formazan. The absorbance of each well at 595 nm was measured by a multimode microplate reader. The cytotoxicity assay was performed three times and the average value of the three measurements was taken.
The activity of conjugate 1a against a platinum-resistant, ovarian cancer cell line (A2780cis) (Behrens et al., “Characterization of a Cis-Diamminedichloroplatinum(Ii)-Resistant Human Ovarian Cancer Cell Line and its Use in Evaluation of Platinum Analogues,” Cancer Res. 47:414 (1987); Masuda et al., “Increased DNA Repair as a Mechanism of Acquired Resistance to Cis-Diamminedichloroplatinum (II) in Human Ovarian Cancer Cell Lines,” Cancer Res. 48:5713 (1988), which are hereby incorporated by reference in their entirety) was first examined. To assess the efficacy of conjugate 1a, the assay was carried out in parallel using the known, clinically used cytotoxic agent, cisplatin.

HeLa cells = test: MTT assay, cytotoxicity against HeLa; assay type: cell-based, human; details: for IC50: Homo sapiens, HeLa, 48 h, read-out: IC50 against HeLa cell
Method: as §1, §2
To confirm that assemblies of the cholesterol conjugate are able to inhibit other cancer cell lines, 1a was incubated with HeLa cells, a widely studied malignant cervical cancer cell line.

[1] = test system: HS-5 cell line (human bone marrow stroma cell line); test: MTT assay, cell viability of HS-5; assay type: cell-based; details: 12.5 μM, 48 hours (FIG. 5A)
Method: as §1, §2
To verify the selectivity of 1a against cancer cells, the HS-5 cell line (human bone marrow stroma cell line) was used; HS-5 hardly overexpresses ALP on cell surface. […] To further confirm that ALP on cell surface (i.e., as an ectophosphatase) contributed to the inhibitory activity of 1a, A2780cis were incubated with 1a and ALP (1 U/mL).
Additional cell viability assays were carried out using conjugates 1a and 1b, optionally with 3, against HepG2 human liver carcinoma cells, Saos-2 osteosarcoma cells, T98G glioblastoma cells, HS-5 (normal bone marrow stromal cells), A2780 ovarian cancer cells (parental line to A2780cis), and Kuramochi ovarian cancer cells. Conjugate 1a was particularly effective against ovarian and cervical cancer cells.

[2] = TEM of assemblies in aqueous solution; assay type: physicochemical; details: 1.0 wt %; for diameter of assemblies on direct dissolution in water: without ALP, 1b spheres-like vesicle, 2b nanoribbon
Method: Sample solution (5 sufficient to cover the grid surface) was placed on the grid. Approximately 10 sec later, sample was rinsed by placing a large drop of the ddH2O on parafilm and allowing the grid to touch the water drop, with the sample-loaded surface facing the parafilm. The grid was tilted and water was gently absorbed from the edge of the grid using a filter paper sliver. This procedure was repeated 3 times. Immediately after rinsing, the staining was conducted by placing a large drop of the uranyl acetate (UA) stain solution on parafilm and allowing the grid to touch the stain solution drop, with the sample-loaded surface facing the parafilm. The grid was tilted and the stain solution was gently absorbed from the edge of the grid using a filter paper sliver. Next, the grid was allowed to dry in air and the grid was examined as soon as possible.
To further understand the inhibitory activity of 1a, transmission electron microscopy (TEM) was used to confirm the EISA of 1b. […] In contrast, uniform nanofibers (diameter of 10±2 nm) formed after the addition of ALP (1 U/mL) into the solution of 1a (FIG. 3B). The resulted nanofibers entangled with each other to result in a viscous solution. […] But the direct dissolution of 2b (1.0 wt %) provided an aqueous solution containing nanoribbon with the diameter of 17±2 nm and in several hundred nanometer length (FIG. 4B). These observations, collectively, confirmed that enzymatic reaction modulated the morphology of the assemblies of the cholesterol conjugates, which partially contributed to the different inhibitory activities of 1a, 1b, 2a, and 2b. That is, being exposed to the cancer cell, 1a (or 2a) turns into 1b (or 2b), a process catalyzed by the extra- or intracellular enzymes of the cancer cells; the resulting 1b (or 2b) self-assembled to form nanoscale assemblies that result in death of the cancer cell.

[3] = test system: HeLa, A2780cis, OVASHO, MES-SA/dx5 and Saos-2 cells; test: NBD visualization of nano-aggregates in cancer cell lines (CLSM); assay type: cell-based; details: 25 μM; 11a in all five cell lines, 11b in OVASHO and MES-SA/dx5
Method: Different cancer cells at the density of 1.5×10^5 were seeded onto 3.5 cm confocal dish. After the growth of cells in cell incubator for 24 h, 11a (or 11b) at 25 μM was added to the above solution with completed medium. At designated times, PBS was used to wash cells 3 times for 1 minute. Hoechst 33342 was used to stain cell nucleus for 10 minutes, and cells were then washed using live cell imaging solution 3 times for 1 minute. Cells were maintained in live cell imaging solution, and CLSM was carried out immediately. The excitation of wavelength was 488 nm, and the emission was 500 nm to 596 nm.

A2780 cell line = test: Cell viability of unstimulated or selected A2780 cell line (acquired resistance); assay type: cell-based; details: after five weeks treatment with gradually increased concentrations; 24, 48, 72 h
Method: as §2
The activity of 1a against non-drug resistant cancer cells was assessed using the A2780 cell line.

[4] = read-out: IC50 against A2780cis, 72 hours
[5] = 48 hours (FIG. 9A), unit inferred
[6] = concentration of 100 μM (FIG. 10)

CC(C)CCC[C@@H](C)C1CC[C@H]2[C@@H]3CC=C4CC(OC(=O)NC(Cc5ccc(O)cc5)C(=O)O)CC[C@]4(C)[C@H]3CC[C@]12C (stereo partly drawn) [1b, Cholesterol-D-Tyr]
cell viability / proliferation of A2780cis (A2780cis cells; 12.5 μM, 48 hours (FIG. 5A)): hardly inhibited
IC50 (A2780cis cells; Homo sapiens, A2780cis, 72 h, read-out: IC50 against A2780cis, 72 hours): 50 µM
IC50 (HeLa cells): 89.7 µM
cell viability / proliferation of HS-5 [1]: hardly inhibited
diameter of assemblies on direct dissolution in water [2]: 25±2 nm

CC(C)CCC[C@@H](C)C1CC[C@H]2[C@@H]3CC=C4CC(OC(=O)NC(Cc5ccc(OP(=O)(O)O)cc5)C(=O)O)CC[C@]4(C)[C@H]3CC[C@]12C (stereo partly drawn) [2a, Cholesterol-(phospho)L-Tyr]
IC50 against A2780cis (A2780cis cells; 72 hours): 15.2 µg/mL (≈ 22.6 µM)
IC50 (A2780cis cells; [4]): 22 µM
IC50 (HeLa cells; [5]): 43.8 µM
morphology in aqueous solution without ALP ([2]; pH 7.4): disorder aggregates
diameter of nanofibers formed after addition of ALP ([2]; pH 7.4, ALP 1 U/mL, 24 hours): 15±2 nm

CC(C)CCC[C@@H](C)C1CC[C@H]2[C@@H]3CC=C4CC(OC(=O)NC(Cc5ccc(O)cc5)C(=O)O)CC[C@]4(C)[C@H]3CC[C@]12C (stereo partly drawn) [2b, Cholesterol-L-Tyr]
IC50 (A2780cis cells; [4]): 36 µM
IC50 (HeLa cells; [5]): 59.2 µM
diameter of assemblies on direct dissolution in water [2]: 17±2 nm

CC(C)CCC[C@@H](C)C1CC[C@H]2[C@@H]3CC=C4CC(OC(=O)NC(Cc5ccc(OP(=O)(O)O)cc5)C(=O)N[C@H](CCCCNc5ccc([N+](=O)[O-])c6nonc56)C(=O)O)CC[C@]4(C)[C@H]3CC[C@]12C (stereo partly drawn) [11a, cholesterol-(phospho)y-(NBD)k]
presence of nano-aggregates in or on treated cells [3]: confirmed presence of nano-aggregates

CC(C)CCC[C@@H](C)C1CC[C@H]2[C@@H]3CC=C4CC(OC(=O)NC(Cc5ccc(O)cc5)C(=O)N[C@H](CCCCNc5ccc([N+](=O)[O-])c6nonc56)C(=O)O)CC[C@]4(C)[C@H]3CC[C@]12C (stereo partly drawn) [11b, cholesterol-y-(NBD)k]
presence of nano-aggregates in or on treated cells [3]: confirmed presence of nano-aggregates

N.N.[Cl][Pt][Cl] [cisplatin, reference compound]
IC50 against A2780cis (A2780cis cells; 48 hours): 21.2 µg/mL
IC50 against A2780cis (A2780cis cells; 72 hours): 12.2 µg/mL
IC50 (A2780cis cells; 72 hours, read-out: IC50 against A2780cis): 41 µM
inhibition of A2780 and acquired drug resistance (A2780 cell line): caused platinum-resistance

CC(C)CCC[C@@H](C)C1CC[C@H]2[C@@H]3CC=C4CC(OC(=O)NC(Cc5ccccc5)C(=O)O)CC[C@]4(C)[C@H]3CC[C@]12C (stereo partly drawn) [compound 3, Cholesterol-D-Phe]
effect on A2780cis cells (A2780cis cells; [6]): innocuous
effect on HeLa cells (HeLa cells; [6]): innocuous

From US11040108B2, “Amino acid- and peptide-steroid conjugates and use thereof” (BRANDEIS UNIVERSITY, priority 2016, dated 2021)
